Data taken from patent publication US11254671B2, “Chemical compounds” (GLAXOSMITHKLINE INTELLECTUAL PROPERTY DEVELOPMENT LIMITED, priority 2017, dated 2022).
“And” between values parts separate entries of the source, which are not always exact repeats. Equal entries are not always repeated.

Target: T1, mTOR (Homo sapiens, UniProt P42345)
T1 construct: capturing of endogenously expressed target proteins from cell extracts by a bead-immobilized capturing ligand; endogenous in cells; host or cells: HuT-78 cells (ECACC 88041901), cell lysate
Test: mTOR kinobeads assay (competition-binding assay)
Conditions: HuT-78 cell extract, endogenously expressed mTOR, bead-immobilized capturing ligand; mean of multiple experiments; read-out: mean pIC50, affinity for mTOR (converted)
Procedure: The affinity of test compounds for mTOR was determined in the mTOR kinobeads assay. This is a competition-binding assay based on the capturing of endogenously expressed target proteins from cell extracts by a bead-immobilized capturing ligand in presence of the test compound.
HuT-78 cells (European Collection of Authenticated Cell Cultures, 88041901) were cultured according to vendor's instructions. Frozen cell pellets were homogenized in 3× pellet volumes lysis buffer (50 mM Tris-HCl, 0.4% (v/v) Igepal-CA630, 5% glycerol, 150 mM NaCl, 1.5 mMMgCl2, 25 mM NaF, 1 mM sodium vanadate, 1 mM DTT, pH 7.5, supplemented with EDTA-free protease inhibitor tablet (Roche)). The sample was dispersed using a Dounce homogenizer, kept rotating for 30 min at 4° C., and centrifuged for 10 min at 20 000 g at 4° C. The supernatant was centrifuged again for 1 h at 145 000 g. The protein concentration was determined by Bradford assay (BioRad), aliquots were snap frozen in liquid nitrogen and stored at −80° C.
The capturing matrices were generated by derivatizing N-hydroxysuccinimide (NHS) activated Sepharose 4 beads (GE Healthcare) with the functionalized ligands Compound A and Compound C at a ligand density of 5 mM. Remaining NHS-groups were blocked with ethanolamine.
For the mTOR kinobeads assay the matrices were combined in a 1:1 ratio and equilibrated in DP buffer (50 mM Tris-HCl (pH 7.5), 0.4% (v/v) Igepal-CA630, 5% (v/v) glycerol, 150 mM NaCl, 1.5 mM MgCl2, 25 mM NaF, 1 mM Na3VO4, 1 mM dithiothreitol). All steps of the mTOR kinobeads assay were performed at 4° C. or on ice. The cell lysate was diluted with DP buffer to a final concentration of 5 mg/ml and a final detergent concentration of 0.4% (v/v) Igepal-CA630. For the assay 250 μg cell lysate and 2.5 μl capturing matrix per well (final assay volume: 75 μl) were incubated in the presence of test compounds in a 384-well filter plate (MultiScreenHTS HV Filter Plate, 0.45 μm, MZHVNOW50, Merck Millipore). Each plate contained 16 positive (100 μM Compound B) and 16 negative (2% v/v DMSO) control wells. Compounds were tested in a concentration-response applying 1:3 or 1:4 dilution steps for in total 11 data points. DMSO concentration was 2% (v/v). After 2 h incubation on an overhead shaker (Roto-Shake Genie, Scientific Industries Inc.) at 4° C. the non-bound fraction was removed by washing the beads with DP buffer. Proteins retained on the beads were eluted in SDS sample buffer (200 mM Tris (pH 7.4), 250 mM Trizma Base, 4% (w/v) SDS, 20% (v/v) glycerol, 0.01% (w/v) bromophenol blue, 50 mM dithiothreitol) into a collection plate (384 well polypropylene microplate, V-shape, Greiner, 781 280). Eluates were spotted on nitrocellulose membranes (400 nl per spot) using an automated pin-tool liquid transfer (Biomek FX, Beckman). After drying, the membranes were rehydrated in 20% (v/v) ethanol and blocked by incubation with Odyssey blocking buffer (LICOR, 927-40000) for 1 h at room temperature. Blocked membranes were incubated overnight at 25° C. with Odyssey blocking buffer supplemented with a specific anti-mTOR antibody (Cell Signaling, 2972; 1:500) and 0.4% TWEEN-20. Then the membranes were washed in PBST buffer and incubated for 60 minutes at room temperature with the detection antibody (IRDye™ labelled antibody from LI-COR) diluted in Odyssey blocking buffer (LICOR 927-40000) containing 0.2% TWEEN-20. Then the membranes were washed with PBST and finally rinsed twice with PBS buffer to remove residual Tween-20. The membranes were then scanned with the Odyssey® Infrared Imaging System (LI-COR Biosciences). Fluorescence signals were recorded and analyzed according to the instructions of the manufacturer. Concentration response curves were computed with the software Activity Base. All data were normalized to the mean of 16 high (negative control) and 16 low (positive control) control wells on each plate. […]

Row | IC50 | Structure (SMILES)
1 | 2.51 to 31.6 nM and 2.51 to 316 nM | CC[C@H]1COCCN1c1cc(C(C)(C)S(C)(=O)=O)cc(-c2ccc3[nH]c(CO)cc3n2)n1 [Example 32]
2 | 2.51 to 316 nM | CCS(=O)(=O)C(C)(C)c1cc(-c2ccc3[nH]c(CNC)cc3n2)nc(N2CCOC[C@@H]2C)c1 [Example 7, (S)-1-(5-(4-(2-(ethylsulfonyl)propan-2-yl)-6-(3-methylmorpholino)pyridin-2-yl)-1H-pyrrolo[3,2-b]pyridin-2-yl)-N-methylmethanamine]
3 | 2.51 to 31.6 nM and 2.51 to 316 nM | CC[C@H]1COCCN1c1cc(C2(S(=O)(=O)N(C)C)CCOCC2)cc(-c2ccc3[nH]c(CNC)cc3n2)n1 [Example 31, 4-{2-[(3S)-3-ethylmorpholin-4-yl]-6-{2-[(methylamino)methyl]-1H-pyrrolo[3,2-b]pyridin-5-yl}pyridin-4-yl}-N,N-dimethyloxane-4-sulfonamide]
4 | 2.51 to 316 nM | CC[C@H]1COCCN1c1cc(C(C)(C)S(=O)(=O)C2CC2)cc(-c2ccc3[nH]c(CNC)cc3n2)n1 [Example 9, (S)-1-(5-(4-(2-(cyclopropylsulfonyl)propan-2-yl)-6-(3-ethylmorpholino)pyridin-2-yl)-1H-pyrrolo[3,2-b]pyridin-2-yl)-N-methylmethanamine]
5 | 2.51 to 31.6 nM and 2.51 to 316 nM | CC[C@H]1COCCN1c1cc(CS(=O)(=O)N(C)C)cc(-c2ccc3[nH]c(CO)cc3n2)n1 [Example 35, 1-{2-[(3S)-3-ethylmorpholin-4-yl]-6-[2-(hydroxymethyl)-1H-pyrrolo[3,2-b]pyridin-5-yl]pyridin-4-yl}-N,N-dimethylmethanesulfonamide]
6 | 2.51 to 31.6 nM and 2.51 to 316 nM | CC[C@H]1COCCN1c1cc(C(C)(C)S(N)(=O)=O)cc(-c2ccc3[nH]c(CNC)cc3n2)n1 [Example 28, 2-{2-[(3S)-3-ethylmorpholin-4-yl]-6-{2-[(methylamino)methyl]-1H-pyrrolo[3,2-b]pyridin-5-yl}pyridin-4-yl}propane-2-sulfonamide]
7 | 2.51 to 31.6 nM and 2.51 to 316 nM | CC[C@H]1COCCN1c1cc(CS(=O)(=O)N(C)C)cc(-c2ccc3[nH]c(CNC)cc3n2)n1 [Example 17, (S)-1-(2-(3-ethylmorpholino)-6-(2-((methylamino)methyl)-1H-pyrrolo[3,2-b]pyridin-5-yl)pyridin-4-yl)-N,N-dimethylmethanesulfonamide]
8 | 2.51 to 31.6 nM and 2.51 to 316 nM | CNCc1cc2nc(-c3cc(CS(C)(=O)=O)cc(N4CCOC[C@@H]4C)n3)ccc2[nH]1 [Example 6, (S)—N-methyl-1-(5-(6-(3-methylmorpholino)-4-((methylsulfonyl)methyl)pyridin-2-yl)-1H-pyrrolo[3,2-b]pyridin-2-yl)methanamine]
9 | 2.51 to 31.6 nM and 2.51 to 316 nM | CC[C@H]1COCCN1c1cc(CS(=O)(=O)NC)cc(-c2ccc3[nH]c(CNC)cc3n2)n1 [Example 30, 1-{2-[(3S)-3-ethylmorpholin-4-yl]-6-{2-[(methylamino)methyl]-1H-pyrrolo[3,2-b]pyridin-5-yl}pyridin-4-yl}-N-methylmethanesulfonamide]
10 | 2.51 to 31.6 nM and 2.51 to 316 nM | CC[C@H]1COCCN1c1cc(C(C)(C)S(C)(=O)=O)cc(-c2ccc3[nH]c(CN)cc3n2)n1 [Example 21, 1-(5-{6-[(3S)-3-ethylmorpholin-4-yl]-4-(2-methanesulfonylpropan-2-yl)pyridin-2-yl}-1H-pyrrolo[3,2-b]pyridin-2-yl)methanamine]
11 | 2.51 to 31.6 nM and 2.51 to 316 nM | CC[C@H]1COCCN1c1cc(CS(C)(=O)=O)cc(-c2ccc3[nH]c(CNC)cc3n2)n1 [Example 13, (S)-1-(5-(6-(3-ethylmorpholino)-4-((methylsulfonyl)methyl)pyridin-2-yl)-1H-pyrrolo[3,2-b]pyridin-2-yl)-N-methylmethanamine]
12 | 2.51 to 316 nM | CNCc1cc2nc(-c3cc(C(F)(F)S(C)(=O)=O)cc(N4CCOC[C@@H]4C)n3)ccc2[nH]1 [Example 12, (S)-1-(5-(4-(difluoro(methylsulfonyl)methyl)-6-(3-methylmorpholino)pyridin-2-yl)-1H-pyrrolo[3,2-b]pyridin-2-yl)-N-methylmethanamine]
13 | 2.51 to 316 nM | CNCc1cc2nc(-c3cc(C4(S(C)(=O)=O)CC4)cc(N4CCOC[C@@H]4C)n3)ccc2[nH]1 [Example 20, ({5-[4-(1-methanesulfonylcyclopropyl)-6-[(3S)-3-methylmorpholin-4-yl]pyridin-2-yl]-1H-pyrrolo[3,2-b]pyridin-2-yl}methyl)(methyl)amine]
14 | 2.51 to 31.6 nM and 2.51 to 316 nM | CC[C@H]1COCCN1c1cc(C2(S(C)(=O)=O)CCOCC2)cc(-c2ccc3[nH]c(CO)cc3n2)n1 [Example 33, (5-{6-[(3S)-3-ethylmorpholin-4-yl]-4-(4-methanesulfonyloxan-4-yl)pyridin-2-yl}-1H-pyrrolo[3,2-b]pyridin-2-yl)methanol]
15 | 2.51 to 31.6 nM and 2.51 to 316 nM | CNCc1cc2nc(-c3cc(C(C)(C)S(C)(=O)=O)cc(N4CCOC[C@@H]4C)n3)ccc2[nH]1 [Example 2, (S)—N-methyl-1-(5-(6-(3-methylmorpholino)-4-(2-(methylsulfonyl)propan-2-yl)pyridin-2-yl)-1H-pyrrolo[3,2-b]pyridin-2-yl)methanamine]
16 | 2.51 to 31.6 nM and 2.51 to 316 nM | CC[C@H]1COCCN1c1cc(CS(=O)(=O)C2CC2)cc(-c2ccc3[nH]c(CNC)cc3n2)n1 [Example 10, (S)-1-(5-(4-((cyclopropylsulfonyl)methyl)-6-(3-ethylmorpholino)pyridin-2-yl)-1H-pyrrolo[3,2-b]pyridin-2-yl)-N-methylmethanamine]
17 | 2.51 to 31.6 nM and 2.51 to 316 nM | CC[C@H]1COCCN1c1cc(C2(S(C)(=O)=O)CCOCC2)cc(-c2ccc3[nH]c(CN)cc3n2)n1 [Example 23, 1-(5-{6-[(3S)-3-ethylmorpholin-4-yl]-4-(4-methanesulfonyloxan-4-yl)pyridin-2-yl}-1H-pyrrolo[3,2-b]pyridin-2-yl)methanamine]
18 | 2.51 to 31.6 nM and 2.51 to 316 nM | CC[C@H]1COCCN1c1cc(CS(C)(=O)=O)cc(-c2ccc3[nH]c(CO)cc3n2)n1 [Example 34, (5-{6-[(3S)-3-ethylmorpholin-4-yl]-4-(methanesulfonylmethyl)pyridin-2-yl}-1H-pyrrolo[3,2-b]pyridin-2-yl)methanol]
19 | 2.51 to 31.6 nM and 2.51 to 316 nM | CC[C@H]1COCCN1c1cc(C2(S(C)(=O)=O)CC2)cc(-c2ccc3[nH]c(CNC)cc3n2)n1 [Example 19, [(5-{6-[(3S)-3-ethylmorpholin-4-yl]-4-(1-methanesulfonylcyclopropyl)pyridin-2-yl}-1H-pyrrolo[3,2-b]pyridin-2-yl)methyl](methyl)amine]

Row | Structure (SMILES) | IC50
20 | CNCc1cc2nc(-c3cc(C(C)(C)S(C)(=O)=O)cc(N4[C@@H]5CC[C@H]4COC5)n3)ccc2[nH]1 [Example 3, 1-(5-(6-((1R,5S)-3-oxa-8-azabicyclo[3.2.1]octan-8-yl)-4-(2-(methylsulfonyl)propan-2-yl)pyridin-2-yl)-1H-pyrrolo[3,2-b]pyridin-2-yl)-N-methylmethanamine] | 2.51 to 316 nM
21 | CNCc1cc2nc(-c3cc(C4(S(C)(=O)=O)CCOCC4)cc(N4C5CCC4COC5)n3)ccc2[nH]1 [Example 40, ({5-[4-(4-methanesulfonyloxan-4-yl)-6-{3-oxa-8-azabicyclo[3.2.1]octan-8-yl}pyridin-2-yl]-1H-pyrrolo[3,2-b]pyridin-2-yl}methyl)(methyl)amine] | 2.51 to 316 nM
22 | CNCc1cc2nc(-c3cc(C(C)(C)S(C)(=O)=O)cc(N4C5CCCC4COC5)n3)ccc2[nH]1 [Example 5, 1-(5-(6-(3-oxa-9-azabicyclo[3.3.1]nonan-9-yl)-4-(2-(methylsulfonyl)propan-2-yl)pyridin-2-yl)-1H-pyrrolo[3,2-b]pyridin-2-yl)-N-methylmethanamine] | 2.51 to 316 nM
